pEC50: −log10 of the molar value.
What follows are molecules tested on P. falciparum (NF54 or 3D7 strain) (assay: Assay for P. falciparum proliferation in infected human blood cells (SYBR Green)). Conditions: Plasmodium falciparum, Erythrocyte, 72 h, NF54 or 3D7 infected human erythrocytes, 72 hours; read-out: EC50 (nM), inhibitory efficacy in delaying P. falciparum proliferation in infected human blood cells.
Type: cell-based, Plasmodium falciparum
How it was run: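 Infected erythrocytes (NF54 or 3D7; final 2.5% hematocrit, 0.3% parasitemia) were incubated with compounds for 72 h at 37 °C in low oxygen (3% O2, 4% CO2, 93% N2).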

SMILES | EC50 [nM]
CN(C(=O)c1cn2c(-c3ccc(C(F)(F)F)cc3)cnc2cn1)c1ccc(S(C)(=O)=O)cn1 [Compound 317, N-(5-methanesulfonylpyridin-2-yl)-N-methyl-3-[4-(trifluoromethyl)phenyl]imidazo[1,2-a]pyrazine-6-carboxamide] | 1900
CN(C(=O)c1cn2c(-c3ccc(C(F)(F)F)cc3)cnc2cn1)c1cncc(F)c1 [Compound 66, N-(5-fluoropyridin-3-yl)-N-methyl-3-[4-(trifluoromethyl)phenyl]imidazo[1,2-a]pyrazine-6-carboxamide] | 5000
CS(=O)(=O)c1ccc(NC(=O)c2cn3c(-c4ccc(C(F)(F)F)cc4)cnc3cn2)cc1 [Compound 128, N-(4-methanesulfonylphenyl)-3-[4-(trifluoromethyl)phenyl]imidazo[1,2-a]pyrazine-6-carboxamide] | > 10000
CN(C(=O)c1cn2c(-c3cccc(C(F)(F)F)c3)cnc2cn1)c1ccc(C#N)cc1 [Compound 175, N-(4-cyanophenyl)-N-methyl-3-[3-(trifluoromethyl)phenyl]imidazo[1,2-a]pyrazine-6-carboxamide] | 3280
CN(C(=O)c1cn2c(-c3ccc4cnccc4c3)cnc2cn1)c1ccc(C#N)cc1 [Compound 167, N-(4-cyanophenyl)-3-(isoquinolin-6-yl)-N-methylimidazo[1,2-a]pyrazine-6-carboxamide] | 4870
COC(=O)Nc1ccc(-c2cnc3cnc(CN(C)c4ccc(C)cn4)cn23)cc1 [Compound 318, methyl N-[4-(6-{[methyl(5-methylpyridin-2-yl)amino]methyl}imidazo[1,2-a]pyrazin-3-yl)phenyl]carbamate] | 2310
CN(C(=O)c1cn2c(-c3ccc(Cl)c(C(F)(F)F)c3)cnc2cn1)c1ccc(C#N)cc1 [Compound 60, 3-[4-chloro-3-(trifluoromethyl)phenyl]-N-(4-cyanophenyl)-N-methylimidazo[1,2-a]pyrazine-6-carboxamide] | 2630
CC(C)S(=O)(=O)c1ccc(-c2cnc3cnc(C(=O)N(C)c4ccc(C#N)cc4)cn23)cc1 [Compound 152, N-(4-cyanophenyl)-N-methyl-3-[4-(propane-2-sulfonyl)phenyl]imidazo[1,2-a]pyrazine-6-carboxamide] | 3170
CN(C(=O)c1cn2c(-c3ccc(C(F)(F)F)cc3)cnc2cn1)c1ccc(Br)nn1 [Compound 96, N-(6-bromopyridazin-3-yl)-N-methyl-3-[4-(trifluoromethyl)phenyl]imidazo[1,2-a]pyrazine-6-carboxamide] | 9990
Cc1cnc(Cl)c(N(C)C(=O)c2cn3c(-c4ccc(C(F)(F)F)cc4)cnc3cn2)c1 [Compound 220, N-(2-chloro-5-methylpyridin-3-yl)-N-methyl-3-[4-(trifluoromethyl)phenyl]imidazo[1,2-a]pyrazine-6-carboxamide] | 4040
CN(C(=O)c1cn2c(-c3ccc(C(F)(F)F)cc3)cnc2cn1)c1cccc(Br)c1 [Compound 183, N-(3-bromophenyl)-N-methyl-3-[4-(trifluoromethyl)phenyl]imidazo[1,2-a]pyrazine-6-carboxamide] | 2400
CN(C(=O)c1cn2c(-c3ccc(C(F)(F)F)cc3)cnc2cn1)c1nccn1C [Compound 174, N-methyl-N-(1-methyl-1H-imidazol-2-yl)-3-[4-(trifluoromethyl)phenyl]imidazo[1,2-a]pyrazine-6-carboxamide] | 4750
CN(C(=O)c1ccc(OC(F)(F)F)cc1)c1cn2c(-c3ccc(C(F)(F)F)cc3)cnc2cn1 [Compound 366, N-methyl-4-(trifluoromethoxy)-N-{3-[4-(trifluoromethyl)phenyl]imidazo[1,2-a]pyrazin-6-yl}benzamide] | > 6250
CN(C(=O)c1cn2c(-c3ccc(C(F)(F)F)cc3)cnc2cn1)c1ccc(C(F)(F)F)nc1 [Compound 239, N-methyl-3-[4-(trifluoromethyl)phenyl]-N-[6-(trifluoromethyl)pyridin-3-yl]imidazo[1,2-a]pyrazine-6-carboxamide] | 6880
CN(C(=O)c1cn2c(-c3ccc(N4CCCC4)nc3)cnc2cn1)c1ccc(C#N)cc1 [Compound 82, N-(4-cyanophenyl)-N-methyl-3-[6-(pyrrolidin-1-yl)pyridin-3-yl]imidazo[1,2-a]pyrazine-6-carboxamide] | 2340
CN(C(=O)c1cn2c(-c3ccc4c(c3)CC(=O)N4)cnc2cn1)c1ccc(C#N)cc1 [Compound 204, N-(4-cyanophenyl)-N-methyl-3-(2-oxo-2,3-dihydro-1H-indol-5-yl)imidazo[1,2-a]pyrazine-6-carboxamide] | 6510
CN(C(=O)c1cn2c(-c3ccc4c(cnn4C)c3)cnc2cn1)c1ccc(S(C)(=O)=O)cc1 [Compound 205, N-(4-methanesulfonylphenyl)-N-methyl-3-(1-methyl-1H-indazol-5-yl)imidazo[1,2-a]pyrazine-6-carboxamide] | 7450

Other lines, results leading:

EC50 [nM] | SMILES
6 | CN(Cc1cn2c(-c3ccc(-c4nnc(N)s4)cc3)cnc2cn1)c1ccc(C#N)cc1 [Compound 25, 4-[({3-[4-(5-amino-1,3,4-thiadiazol-2-yl)phenyl]imidazo[1,2-a]pyrazin-6-yl}methyl)(methyl)amino]benzonitrile]
619 | CN(C(=O)c1cn2c(-c3ccc(C(F)(F)F)cc3)cnc2cn1)c1ncc(Cl)cc1F [Compound 6, N-(5-chloro-3-fluoropyridin-2-yl)-N-methyl-3-(4-(trifluoromethyl)phenyl)imidazo[1,2-a]pyrazine-6-carboxamide]
1890 | CS(=O)(=O)c1ccc2c(c1)CCCN2C(=O)c1cn2c(-c3ccc(C(F)(F)F)cc3)cnc2cn1 [Compound 316, 6-methanesulfonyl-1-({3-[4-(trifluoromethyl)phenyl]imidazo[1,2-a]pyrazin-6-yl}carbonyl)-1,2,3,4-tetrahydroquinoline]
112 | CN(C(=O)c1ccc(F)cc1)c1cn2c(-c3ccc(C(F)(F)F)cc3)cnc2cn1 [Compound 268, 4-fluoro-N-methyl-N-{3-[4-(trifluoromethyl)phenyl]imidazo[1,2-a]pyrazin-6-yl}benzamide]
424 | CN(C(=O)c1ccc(Cl)nc1)c1cn2c(-c3ccc(C(F)(F)F)cc3)cnc2cn1 [Compound 267, 6-chloro-N-methyl-N-{3-[4-(trifluoromethyl)phenyl]imidazo[1,2-a]pyrazin-6-yl}pyridine-3-carboxamide]
67 | CCOC(=O)Nc1ccc(-c2cnc3cnc(C(=O)N(C)c4ccc(C#N)cc4)cn23)cc1 [Compound 254, ethyl N-(4-{6-[(4-cyanophenyl)(methyl)carbamoyl]imidazo[1,2-a]pyrazin-3-yl}phenyl)carbamate]
302 | COc1ncc(C)cc1N(C)C(=O)c1cn2c(-c3ccc(C(F)(F)F)cc3)cnc2cn1 [Compound 250, N-(2-methoxy-5-methylpyridin-3-yl)-N-methyl-3-[4-(trifluoromethyl)phenyl]imidazo[1,2-a]pyrazine-6-carboxamide]
224 | N#Cc1ccc2c(c1)CCCN2C(=O)c1cn2c(-c3ccc(C(F)(F)F)cc3)cnc2cn1 [Compound 274, 1-({3-[4-(trifluoromethyl)phenyl]imidazo[1,2-a]pyrazin-6-yl}carbonyl)-1,2,3,4-tetrahydroquinoline-6-carbonitrile]
97 | CNc1nnc(-c2ccc(-c3cnc4cnc(C(=O)N(C)c5ccc(Cl)nc5)cn34)cc2)s1 [Compound 262, N-(6-chloropyridin-3-yl)-N-methyl-3-{4-[5-(methylamino)-1,3,4-thiadiazol-2-yl]phenyl}imidazo[1,2-a]pyrazine-6-carboxamide]
70 | CN(C(=O)c1cn2c(-c3ccc(C(F)F)cc3)cnc2cn1)c1ccc(C#N)cc1 [Compound 57, N-(4-cyanophenyl)-3-[4-(difluoromethyl)phenyl]-N-methylimidazo[1,2-a]pyrazine-6-carboxamide]
37 | COC(=O)Nc1ccc(-c2cnc3cnc(CN(C)c4ccc(C#N)cc4)cn23)cc1 [Compound 225, methyl N-[4-(6-{[(4-cyanophenyl)(methyl)amino]methyl}imidazo[1,2-a]pyrazin-3-yl)phenyl]carbamat]
1500 | CN(C(=O)c1cn2c(-c3ccc(C(N)=O)cc3)cnc2cn1)c1ccc(C#N)cn1 [Compound 98, 3-(4-carbamoylphenyl)-N-(5-cyanopyridin-2-yl)-N-methylimidazo[1,2-a]pyrazine-6-carboxamide]
1740 | CNC(=O)c1ccc(-c2cnc3cnc(C(=O)N(C)c4ccc(C#N)cc4)cn23)cn1 [Compound 331, 5-{6-[(4-cyanophenyl)(methyl)carbamoyl]imidazo[1,2-a]pyrazin-3-yl}-N-methylpyridine-2-carboxamide]
36 | CN(C(=O)c1cn2c(-c3ccc(C(F)(F)F)cc3)cnc2cn1)c1ccc(Cl)cc1 [Compound 217, N-(4-chlorophenyl)-N-methyl-3-[4-(trifluoromethyl)phenyl]imidazo[1,2-a]pyrazine-6-carboxamide]
58 | CN(Cc1cn2c(-c3ccc(-c4ccn[nH]4)cc3)cnc2cn1)c1ccc(F)cc1 [Compound 3, N-((3-(4-(1H-pyrazol-5-yl)phenyl)imidazo[1,2-a]pyrazin-6-yl)methyl)-4-fluoro-N-methylaniline]
477 | CN(C)CCCOc1ccc(-c2cnc3cnc(C(=O)N(C)c4ccc(C#N)cc4)cn23)cn1 [Compound 1, N-(4-cyanophenyl)-3-(6-(3-(dimethylamino)propoxy)pyridin-3-yl)-N-methylimidazo[1,2-a]pyrazine-6-carboxamide]
155 | CN(C(=O)c1cn2c(-c3ccc(NC(=O)C4CCC[C@H]4N)cc3)cnc2cn1)c1ccc(C#N)cc1 (stereo partly drawn) [Compound 255, 3-(4-{[(1S,2R)-2-aminocyclopentane]amido}phenyl)-N-(4-cyanophenyl)-N-methylimidazo[1,2-a]pyrazine-6-carboxamide]

Same assay, conditions: Plasmodium falciparum, Erythrocyte, infected human red blood cells; read-out: EC50, P. falciparum Proliferation Assay

pEC50 | SMILES
> 7.30 | CN(Cc1cn2c(-c3ccc(-c4nnc(N)s4)cc3)cnc2cn1)c1ccc(C#N)cc1 [Compound 25, 4-[({3-[4-(5-amino-1,3,4-thiadiazol-2-yl)phenyl]imidazo[1,2-a]pyrazin-6-yl}methyl)(methyl)amino]benzonitrile]
